Reference: patent US9668481B2, “Triazole derivatives” (priority 2013, dated 2017)
Read-outs that look alike come from different tables or passages of the source.

[1] = method [a]: LC-MS at pH 2.7, 0.1% formic acid in water / acetonitrile gradient
[2] = method [b]: LC-MS at pH 7.8, 0.001 molar ammonium hydrogen carbonate in water / acetonitrile gradient

CC(C)(C)C(=O)Cc1ncc(Cl)cc1Cl [Example V-1]
LogP [1]: 3.33^[a]

CC(C)(C)C(=O)Cc1cnc2ccccc2c1 [Example V-2]
LogP [1]: 1.60^[a]

CC(C)(C)C(=O)Cc1ccc(Cl)nc1 [Example V-3]
LogP [1]: 2.47^[a]

CCC(C)(CC)C(=O)Cc1ccncc1Cl [Example V-5]
LogP [1]: 3.04^[a]

CC(C)C(C)(C)C(=O)Cc1ccncc1Cl [Example V-6]
LogP [1]: 3.00^[a]

CC(C)(C)C(=O)Cc1cccnc1 [Example V-7]
LogP [1]: 0.41
LogP [2]: 1.71

CC(C)(C)C(=O)Cc1ccncc1 [Example V-8]
LogP [1]: 0.35
LogP [2]: 1.75

CC(C)(C)C1(Cc2ncc(Cl)cc2Cl)CO1 (stereo not shown) [XII-1]
LogP [1]: 4.06^[a]

CC(C)(C)C1(Cc2cnc3ccccc3c2)CO1 (stereo not shown) [XII-2]
LogP [1]: 1.86^[a]

CC(C)(C)C1(Cc2ccncc2F)CO1 (stereo not shown) [XII-7]
LogP [1]: 2.31^[a]

CCC(C)(C)C1(Cc2ccncc2F)CO1 (stereo not shown) [XII-8]
LogP [1]: 2.76^[a]

CC(C)C(C)(C)C1(Cc2ccncc2F)CO1 (stereo not shown) [XII-9]
LogP [1]: 3.19^[a]

CCC(C)(C)C1(Cc2ccnc(Cl)c2)CO1 (stereo not shown) [XII-10]
LogP [1]: 3.51^[a]

CC(C)C(C)(C)C1(Cc2ccnc(Cl)c2)CO1 (stereo not shown) [XII-11]
LogP [1]: 3.94^[a]

CC(C)(C)C1(Cc2ccnc(Cl)c2)CO1 (stereo not shown) [XII-12]
LogP [1]: 3.06^[a]

CC(C)C(C)(C)C1(Cc2cc(Cl)ncc2F)CO1 (stereo not shown) [XII-13]
LogP [1]: 4.34^[a]

CCC(C)(C)C1(Cc2cc(Cl)ncc2F)CO1 (stereo not shown) [XII-14]
LogP [1]: 3.89^[a]

CC(C)(C)C1(Cc2cc(Cl)ncc2F)CO1 (stereo not shown) [XII-15]
LogP [1]: 3.42^[a]

CC(C)C(C)(C)C1(Cc2ccncc2Cl)CO1 (stereo not shown) [XII-16]
LogP [1]: 3.75^[a]

CCC(C)(C)C1(Cc2ccncc2Cl)CO1 (stereo not shown) [XII-17]
LogP [1]: 3.33^[a]

CC(C)(C)C1(Cc2cc(F)ncc2Cl)CO1 (stereo not shown) [XII-18]
LogP [1]: 3.65^[a]

CCC(C)(C)C1(Cc2cc(F)ncc2Cl)CO1 (stereo not shown) [XII-19]
LogP [1]: 4.17^[a]

CC(C)(C)C1(Cc2ccnc(Cl)c2F)CO1 (stereo not shown) [XII-20]
LogP [1]: 3.37^[a]

CC(C)(C)C1(Cc2c(Cl)cncc2Cl)CO1 (stereo not shown) [XII-21]
LogP [1]: 3.89^[a]

CCC(C)(C)C1(Cc2c(Cl)cncc2Cl)CO1 (stereo not shown) [XII-22]
LogP [1]: 4.41^[a]

CCCC(C)(C)C1(Cc2ccncc2Cl)CO1 (stereo not shown) [XII-23]
LogP [1]: 2.03^[a]
